In brackets after ≈: the same amount, converted by molar mass.

This experiment deals with A. baumannii strain ATCC19606. In words: Minimum inhibitory concentration (MIC) determination, microbroth dilution (CLSI). Format: cell-based. The note with it: Acinetobacter baumannii; A. baumannii ATCC19606; CAMHB; read after 20 hours; >=80% growth inhibition; read-out: ATCC19606 MIC. Here is the method: The in vitro antimicrobial activity of the compounds was determined through microbroth minimum inhibitory concentration (MIC) methodology performed according to the Clinical and Laboratory Standard Institute guidelines (CLSI—M07-A9 Jan. 2012. Methods for Dilution Antimicrobial Susceptibility Tests for Bacteria That Grow Aerobically; Approved Standard—Ninth Edition, Clinical and Laboratory Standards Institute, Wayne/PA, US and the CLSI—M100-S24 Jan. 2014. Performance Standards for Antimicrobial Susceptibility Testing; Approved Standard—Fourth Informational Supplement, Clinical and Laboratory Standards Institute, Wayne/PA, US).
The compound stock solution was freshly prepared at 10× the required top concentration for the MIC determination, i.e. at 1280 mg/L, by reconstitution of the dry compound in 50:50 water:DMSO.
Polystyrene non-treated 96 wells microtiter plates were used for preparing panel containing compound serial twofold diluted at two times the final testing concentration (e.g. range from 64 to 0.06 μg/ml) in cation adjusted Mueller Hinton broth medium (CAMHB).
Inoculum was prepared by the “direct colony suspension method”. Colonies of A. baumannii ATCC19606 or clinical isolates were suspended in saline solution and adjusted to 0.5 McFarland, diluted 100 times in CAMHB broth and 50 μl added to each well (final concentration of cells ˜5×10^(5) CFU/ml and Final volume/well of 100 μl). Microtiter plates were sealed and incubated at 35±2° C.
MICs values were read after 20 hours of incubation and recorded as the lowest concentration of the antimicrobial that inhibits more or equal to 80% of growth of the organism as detected by the unaided eye and using a microtiter plate optical density reader (OD 600 nm).
Tables 2, 3, 4 and 5 provide the minimum inhibitory concentration (MIC) in microgram per milliliter of the compounds of present invention obtained against the A. baumannii strain ATCC19606 (Tables 2, 3, 4 and 5).
In general terms: Broth dilution looks for growth in wells or tubes with falling amounts of substance.
For `CN1C(=O)[C@H](CCCCN)NC(=O)[C@H](CCCN)NCc2ccccc2Sc2ccc(Cl)cc2CNC(=O)[C@@H]1Cc1c[nH]c2cc(Cl)ccc12` [Example 18, (12S,15S,18S)-15-(4-Amino-butyl)-18-(3-amino-propyl)-6-chloro-12-(6-chloro-1H-indol-3-ylmethyl)-13-methyl-2-thia-10,13,16,19-tetraaza-tricyclo[19.4.0.0*3,8*]pentacosa-1(21),3,5,7,22,24-hexaene-11,14,17-trione], the minimal inhibitory concentration (MIC) was 16 µg/mL (≈ 21.7 µM). For the compound `CN1C(=O)[C@H](CCCCN)NC(=O)[C@H](CCCN)NCc2ccccc2Sc2ccc(Cl)cc2CNC(=O)[C@@H]1Cc1cn(C)c2cc(Cl)ccc12` [Example 19, (12S,15S,18S)-15-(4-Amino-butyl)-18-(3-amino-propyl)-6-chloro-12-(6-chloro-1-methyl-1H-indol-3-ylmethyl)-13-methyl-2-thia-10,13,16,19-tetraaza-tricyclo[19.4.0.0*3,8*]pentacosa-1(21),3,5,7,22,24-hexaene-11,14,17-trione], the MIC amounted to 16 µg/mL (≈ 21.3 µM). Under `C[C@@H]1NC(=O)[C@H](Cc2c[nH]c3ccccc23)N(C)C(=O)[C@H](CCCCN)NC(=O)[C@H](CCCN)NCc2ccccc2Sc2ccc(Cl)cc21` [Example 20, (9S,12S,15S,18S)-15-(4-Amino-butyl)-18-(3-amino-propyl)-6-chloro-12-(1H-indol-3-ylmethyl)-9,13-dimethyl-2-thia-10,13,16,19-tetraaza-tricyclo[19.4.0.0*3,8*]pentacosa-1(25),3,5,7,21,23-hexaene-11,14,17-trione] stands 2 µg/mL (≈ 2.78 µM); under `CN1C(=O)[C@H](CCCCN)NC(=O)[C@H](CCCN)NCc2ccccc2Sc2ccc(Cl)c(Cl)c2CNC(=O)[C@@H]1Cc1c[nH]c2ccccc12` [Example 21, (12S,15S,18S)-15-(4-Amino-butyl)-18-(3-amino-propyl)-6,7-dichloro-12-(1H-indol-3-ylmethyl)-13-methyl-2-thia-10,13,16,19-tetraaza-tricyclo[19.4.0.0*3,8*]pentacosa-1(25),3,5,7,21,23-hexaene-11,14,17-trione], 1 µg/mL (≈ 1.35 µM). As to `CN1C(=O)[C@H](CCCCN)NC(=O)[C@H](CCCN)NCc2ccccc2Sc2cccc(Cl)c2CNC(=O)[C@@H]1Cc1c[nH]c2ccccc12` [Example 22, (12S,15S,18S)-15-(4-Amino-butyl)-18-(3-amino-propyl)-7-chloro-12-(1H-indol-3-ylmethyl)-13-methyl-2-thia-10,13,16,19-tetraaza-tricyclo[19.4.0.0*3,8*]pentacosa-1(25),3,5,7,21,23-hexaene-11,14,17-trione], the MIC is 32 µg/mL (≈ 45.4 µM). To `CN1C(=O)[C@H](CCCCN)NC(=O)[C@H](CCCN)NCc2ccccc2Sc2c(Cl)ccc(Cl)c2CNC(=O)[C@@H]1Cc1c[nH]c2ccccc12` [Example 23, (12S,15S,18S)-15-(4-Amino-butyl)-18-(3-amino-propyl)-4,7-dichloro-12-(1H-indol-3-ylmethyl)-13-methyl-2-thia-10,13,16,19-tetraaza-tricyclo[19.4.0.0*3,8*]pentacosa-1(25),3,5,7,21,23-hexaene-11,14,17-trione] belongs 0.5 µg/mL (≈ 0.677 µM); to `CN1C(=O)[C@H](CCCCN)NC(=O)[C@H](CCCN)NCc2ccccc2Sc2c(Cl)ccc(C(F)(F)F)c2CNC(=O)[C@@H]1Cc1c[nH]c2ccccc12` [Example 24, (12S,15S,18S)-15-(4-Amino-butyl)-18-(3-amino-propyl)-4-chloro-12-(1H-indol-3-ylmethyl)-13-methyl-7-trifluoromethyl-2-thia-10,13,16,19-tetraaza-tricyclo[19.4.0.0*3,8*]pentacosa-1(25),3,5,7,21,23-hexaene-11,14,17-trione], 1 µg/mL (≈ 1.29 µM). To `CN1C(=O)[C@H](CCCCN)NC(=O)[C@H](CCCN)NCc2ccccc2Sc2c(Cl)cc(C(F)(F)F)cc2CNC(=O)[C@@H]1Cc1c[nH]c2ccccc12` [Example 25, (12S,15S,18S)-15-(4-Amino-butyl)-18-(3-amino-propyl)-4-chloro-12-(1H-indol-3-ylmethyl)-13-methyl-6-trifluoromethyl-2-thia-10,13,16,19-tetraaza-tricyclo[19.4.0.0*3,8*]pentacosa-1(25),3,5,7,21,23-hexaene-11,14,17-trione] belongs 1 µg/mL (≈ 1.29 µM); to `CN1C(=O)[C@H](CCCCN)NC(=O)[C@H](CCCN)NCc2ccccc2Sc2c(Cl)ccc(F)c2CNC(=O)[C@@H]1Cc1c[nH]c2ccccc12` [Example 26, (12S,15S,18S)-15-(4-Amino-butyl)-18-(3-amino-propyl)-4-chloro-7-fluoro-12-(1H-indol-3-ylmethyl)-13-methyl-2-thia-10,13,16,19-tetraaza-tricyclo[19.4.0.0*3,8*]pentacosa-1(25),3,5,7,21,23-hexaene-11,14,17-trione], 1 µg/mL (≈ 1.38 µM); to `CN1C(=O)[C@H](CCCCN)NC(=O)[C@H](CCCN)NCc2cc(F)ccc2Sc2c(Cl)cc(Cl)cc2CNC(=O)[C@@H]1Cc1c[nH]c2ccccc12` [Example 27, (12S,15S,18S)-15-(4-Amino-butyl)-18-(3-amino-propyl)-4,6-dichloro-23-fluoro-12-(1H-indol-3-ylmethyl)-13-methyl-2-thia-10,13,16,19-tetraaza-tricyclo[19.4.0.0*3,8*]pentacosa-1(25),3,5,7,21,23-hexaene-11,14,17-trione], 2 µg/mL (≈ 2.64 µM). Under `CN1C(=O)[C@H](CCCCN)NC(=O)[C@H](CCCN)NCc2cccnc2Sc2c(Cl)cccc2CNC(=O)[C@@H]1Cc1c[nH]c2ccccc12` [Example 28, (11S,14S,17S)-14-(4-Amino-butyl)-11-(3-amino-propyl)-25-chloro-17-(1H-indol-3-ylmethyl)-16-methyl-2-thia-4,10,13,16,19-pentaaza-tricyclo[19.4.0.0*3,8*]pentacosa-1(25),3,5,7,21,23-hexaene-12,15,18-trione] stands 2 µg/mL (≈ 2.84 µM).

Regarding `CN1C(=O)[C@H](CCCCN)NC(=O)[C@H](CCCN)NCc2ccccc2Sc2c(F)ccc(F)c2CNC(=O)[C@@H]1Cc1c[nH]c2ccccc12` [Example 29, (12S,15S,18S)-15-(4-Amino-butyl)-18-(3-amino-propyl)-4,7-difluoro-12-(1H-indol-3-ylmethyl)-13-methyl-2-thia-10,13,16,19-tetraaza-tricyclo[19.4.0.0*3,8*]pentacosa-1(21),3,5,7,22,24-hexaene-11,14,17-trione], the MIC is 2 µg/mL (≈ 2.83 µM). Under `CN1C(=O)[C@H](CCCCN)NC(=O)[C@H](CCCN)NCc2ccccc2Sc2c(F)cccc2CNC(=O)[C@@H]1Cc1c[nH]c2ccccc12` [Example 30, (12S,15S,18S)-15-(4-Amino-butyl)-18-(3-amino-propyl)-4-fluoro-12-(1H-indol-3-ylmethyl)-13-methyl-2-thia-10,13,16,19-tetraaza-tricyclo[19.4.0.0*3,8*]pentacosa-1(21),3,5,7,22,24-hexaene-11,14,17-trione] stands 2 µg/mL (≈ 2.91 µM); under `CN1C(=O)[C@H](CCCCN)NC(=O)[C@H](CCCN)NCc2ccccc2Sc2c(cc(Cl)cc2C(F)(F)F)CNC(=O)[C@@H]1Cc1c[nH]c2ccccc12` [Example 31, (12S,15S,18S)-15-(4-Amino-butyl)-18-(3-amino-propyl)-6-chloro-12-(1H-indol-3-ylmethyl)-13-methyl-4-trifluoromethyl-2-thia-10,13,16,19-tetraaza-tricyclo[19.4.0.0*3,8*]pentacosa-1(25),3,5,7,21,23-hexaene-11,14,17-trione], 1 µg/mL (≈ 1.29 µM); under `Cc1[nH]c2ccccc2c1C[C@H]1C(=O)NCc2ccccc2Sc2ccccc2CN[C@@H](CCCN)C(=O)N[C@@H](CCCCN)C(=O)N1C` [Example 32, (12S,15S,18S)-15-(4-Amino-butyl)-18-(3-amino-propyl)-13-methyl-12-(2-methyl-1H-indol-3-ylmethyl)-2-thia-10,13,16,19-tetraaza-tricyclo[19.4.0.0*3,8*]pentacosa-1(21),3,5,7,22,24-hexaene-11,14,17-trione], 2 µg/mL (≈ 2.92 µM). Under `CN1C(=O)[C@H](CCCCN)NC(=O)[C@H](CCCN)NCc2cccnc2Sc2ccc(Cl)cc2CNC(=O)[C@@H]1Cc1c[nH]c2ccccc12` [Example 33, (11S,14S,17S)-14-(4-Amino-butyl)-11-(3-amino-propyl)-23-chloro-17-(1H-indol-3-ylmethyl)-16-methyl-2-thia-4,10,13,16,19-pentaaza-tricyclo[19.4.0.0*3,8*]pentacosa-1(25),3,5,7,21,23-hexaene-12,15,18-trione] stands 1 µg/mL (≈ 1.42 µM); under `CN1C(=O)[C@H](CCCCN)NC(=O)[C@H](CCCN)NCc2cccnc2Sc2cccc(Cl)c2CNC(=O)[C@@H]1Cc1c[nH]c2ccccc12` [Example 34, (11S,14S,17S)-14-(4-Amino-butyl)-11-(3-amino-propyl)-22-chloro-17-(1H-indol-3-ylmethyl)-16-methyl-2-thia-4,10,13,16,19-pentaaza-tricyclo[19.4.0.0*3,8*]pentacosa-1(25),3,5,7,21,23-hexaene-12,15,18-trione], 16 µg/mL (≈ 22.7 µM).

In general, MIC refers to the least concentration at which growth counts as inhibited.

These data come from patent US10030047B2 (Hoffmann-La Roche Inc., priority 2015, dated 2018).
